From US9605013B2, “Derivatives of hemin with antibacterial and antiviral activity” (OBSCHESTVO S OGRANICHENNOI OTVETSTVENNOSTIYU …, priority 2011, dated 2017)

Key:
Format in all cases: cell-based
[1] = tested on: Staphylococcus aureus 209P; assay: Antibacterial activity, serial dilutions in liquid MH medium; details: MH medium, 20 h, 37° C., 100% growth inhibition
Procedure: (§1) The antibacterial activity of the compounds was determined against strains of gram-positive bacteria such as Staphylococcus aureus 209P, Enterococcus faecalis BKM B-871, Micrococcus luteus BKM Ac-2230, Bacillus subtilis BKM B-501, and gram-negative bacteria such as Pseudomonas aeruginosa PAO1 and Escherichia coli KM MGU C-600. BKM strains were acquired from the All-Russia Collection of Microorganisms at the Institute for Biochemistry and Physiology of Microorganisms, Russian Academy of Sciences. Strain Staphylococcus aureus 209P was acquired from the Collection of Microorganisms at the Department of microbiology of the Faculty of Biology of Lomonosov Moscow State University, and Pseudomonas aeruginosa PAO1 was acquired from the Collection of Microorganisms at the Institute of Bioorganic Chemistry of the Russian Academy of Sciences.
(§2) The main parameters characterizing the antibacterial activity are the minimal inhibitory concentration (MIC) and minimal bactericidal concentration (MBC). […] MBC is the least concentration that causes the death of all cells.
(§3) MIC was quantified by inhibiting culture growth in a liquid medium with serial dilutions of compounds using a modified procedure [Amsterdam, D., 1966. “Susceptibility testing of antimicrobials in liquid media,” pp. 52-111. In Loman, V., ed. Antibiotics in laboratory medicine, 4th ed. Williams and Wilkins, Baltimore].
(§4) Bacteria were cultured and tested on an MH liquid medium (Mueller-Hinton medium: a dry extract of beef broth, 4 g/L; starch, 1.5 g/L; casein hydrolyzate, 17.5 g/L; Sigma-Fluka Catalog No. 70192) at 37° C., 100% humidity, and under stirring. Cultures (within 4 to 7 passages after thawing) in the exponential growth phase were used for tests.
(§5) All tested compounds absorb light at 595 nm, a wavelength used for evaluating bacterial culture growth. Therefore, a correction for absorption was applied in estimating the optical density of bacterial suspensions for each compound with account for its concentration in the well. Bacterial growth inhibition (GI) as percentage after 20 hours of incubating cells with compounds was derived from the optical density (A) measured in every well at a wavelength of 595 nm using the equation: GIi=[(Act−Ac0)−(Ait−Ai0)]×100/(Act−Ac0), (1) wherein the subscripts have the following meanings: i denotes the well number, c denotes a control well with bacteria whereto the tested compound is not inserted, 0 refers to the measurement taken immediately once the tested compound was inserted to the well, and t refers to the measurement taken 20 hours after the compound was inserted.
(§6) The protocol for the determination of experimental antibacterial activity of the tested compounds was as follows. A cryovial with the test strain culture in a medium with 7% DMSO stored in liquid nitrogen, was rapidly defrosted, and 1.5 mL of the fresh MH medium was inoculated with 100 μL of the cell suspension. Cells were grown for one day at 37° C. and stirred on an orbital shaker at 150 rpm. The morphologic features of the strain and the absence of contamination with foreign bacteria were verified by: (a) inoculation on an agarized (15 g/L agar) MH medium and observation of the shape and color of the grown colonies and (b) examination of characteristic morphologic features under a microscope (Mikmed-2, LOMO, Russia) equipped with a 40× objective lens. Further, the bacteria were cultured in 1 mL of the liquid MH medium at 37° C. under stirring. The cells were reseeded every day. Cell cultures were used in tests starting with 3rd reseeding and ending with 6th one.
(§7) For testing, 5 μL of a bacterial suspension in the stationary growth phase was transferred to 1 mL of a sterile MH medium and incubated until the exponential growth phase was attained (3 to 5 h, 37° C., stirring at 150 rpm). To estimate the microorganism concentration, the optical density (A) of the resulting bacterial culture was measured at a wavelength of 595 nm. […]

[2] = tested on: Micrococcus luteus BKM Ac-2230; assay: as above
Procedure: as §1, §2, §3, §4, §5, §6, §7

[3] = tested on: Bacillus subtilis BKM B-501; assay: as above
Procedure: as §1, §2, §3, §4, §5, §6, §7

[4] = tested on: Enterococcus faecalis No. 559; assay: Antibacterial specific activity, twofold dilutions, visual growth evaluation; details: E. faecalis 559; 36° C., 24 hours
Procedure: (§8) The specific activity of compounds also was determined against bacteria strains such as Staphylococcus aureus No. 25923 ATCC (American Type Culture Collection); Staphylococcus aureus No. 100 KC; Staphylococcus epidermidis No. 533; Enterococcus faecalis No. 559; Enterococcus faecium No. 569, Staphylococcus aureus No. 5 (MRSA), Staphylococcus aureus No. 3797 (MRSA). Staphylococcus aureus was cultured on the Trypticase Soy Agar (BBL) commercially available dry medium. Enterococcus faecalis was cultured on the Columbia Agar (BBL) commercially available dry medium. These media were sterilized by autoclaving at 121° C. for 15 min. Bacterial inoculum was constant and was 5×10^5 CFU/ml (10^5 CFU/0.2 ml). For water-soluble compounds, wells from 2nd through 8th were added with the solvent (water) in an amount of 15 μL per well, then the 1st well was added with 30 μL of the stock solution of the tested compound in […] with a concentration of […], and the concentration was adjusted to 0.007×10^3 M by serial twofold dilutions. A 10-μL portion was taken from every well, and 190 μL of the bacterial culture (10^5 CFU) was added per well. For DMSO-soluble compounds, wells from 2nd through 8th were added with the solvent (DMSO) in an amount of 10 μL per well, then the 1st well was added with 20 μL of the stock solution of the tested compound in […] with a concentration of […], and the concentration was adjusted to 0.039×10^3 M by serial twofold dilutions. A 2-μL portion was taken from each well, and 198 μL of the bacterial culture (10^5 CFU) was added per well.
(§9) The control comprised wells free of tested compounds (culture growth control). In addition, purity control of nutritional media and solvents was used. Plates were incubated in a thermostat at 36° C. for 24 hours.
(§10) Culture growth was evaluated visually by comparison of how microorganisms grew in the presence of tested compounds and in the absence of them. MIC was set equal to the last dilution of a tested agent which suppressed bacterial culture growth.

[5] = tested on: Staphylococcus aureus No. 25923 ATCC; assay: as above; details: S. aureus 25923; 36° C., 24 hours
Procedure: as §8, §9, §10

[6] = tested on: Vancomycin-resistant Enterococcus faecium 569; assay: as above; details: Vancomycin-resistant E. faecium 569; 36° C., 24 hours
Procedure: as §8, §9, §10

[7] = tested on: Staphylococcus aureus No. 100 KC; assay: as above; details: S. aureus 100 KC; 36° C., 24 hours
Procedure: as §8, §9, §10

[8] = tested on: Staphylococcus epidermidis No. 533; assay: as above; details: S. epidermis 533; 36° C., 24 hours
Procedure: as §8, §9, §10

[9] = tested on: Staphylococcus aureus No. 3797 (MRSA); assay: as above; details: St. aur No. 3797 MRSA; 36° C., 24 hours
Procedure: as §8, §9, §10

[10] = tested on: Staphylococcus aureus No. 5 (MRSA); assay: as above; details: St. aur No. 5 MRSA; 36° C., 24 hours
Procedure: as §8, §9, §10

Escherichia coli 4300 = assay: as above; details: E. coli 4300; 36° C., 24 hours
Procedure: [Worded in the source for another organism; this organism is reported under the same test.] as §8, §9, §10

[11] = MH medium, 20 h, 37° C., 100% growth inhibition
[12] = no colonies on agarized MH medium

Substance | MIC [1] [µM] | MIC [2, 11] [µM] | MBC [2, 12] [µM] | MIC [3, 11] [µM] | MBC [3, 12] [µM] | MIC [4] [µM] | MIC [5] [µM] | MIC [6] [µM] | MIC [7] [µM] | MIC [8] [µM] | MIC [9] [µM] | MIC [10] [µM] | MIC (Escherichia coli 4300) [µM]
6,7-bis-(N^α-Glycyl]-Protohemin (IX) [VII] | 50 | 12.5 | 25 | 25 | 25 | >50.0 | 2.6 | >50.0 | 12.5 | 6.25 | 6.25 | 6.25 | >50.0
6,7-bis-[(Methyl Ester N^α-L-Seryl)-L-Arginyl]-Protohemin (IX) [XIX] | – | – | – | – | – | 1.3 | 0.65 | 6.25 | 0.78 | 1.3 | 1.3 | 1.56 | >50.0
6,7-bis-[(N^α-L-Arginyl)-L-Seryl]-Protohemin (IX) [XXIV] | – | – | – | – | – | >50.0 | >50.0 | 6.25 | 5.20 | 2.60 | 25 | 25 | >50.0
6,7-bis-[(N^α-L-Seryl)-L-Arginyl]-Protohemin (IX) [XXII] | – | – | – | – | – | >50.0 | 1.3 | 5.2 | 0.39 | 1.3 | 20.8 | 25 | >50.0
